Test results published in patent US20220265646A1, “PIEZO AGONISTS FOR PREVENTING OR REVERTING ABNORMAL AMYLOID DEPOSITION” (ITÄ-SUOMEN YLIOPISTO, priority 2019, published 2022).

Experiments:
Assay type in all cases: cell-based
[1] = target: T1, native Piezo1Rs (Homo sapiens, UniProt Q92508); assay: Calcium imaging of Yoda1-evoked Ca2+ influx in hiPSC-derived microglia; conditions: 50 μM Yoda1, control hiPSC microglia pre-incubated 15 min in BS, n=6
T1 construct: endogenous in cells; host or cells: human iPSC-derived microglia
T1 sequence (Q92508 whole entry): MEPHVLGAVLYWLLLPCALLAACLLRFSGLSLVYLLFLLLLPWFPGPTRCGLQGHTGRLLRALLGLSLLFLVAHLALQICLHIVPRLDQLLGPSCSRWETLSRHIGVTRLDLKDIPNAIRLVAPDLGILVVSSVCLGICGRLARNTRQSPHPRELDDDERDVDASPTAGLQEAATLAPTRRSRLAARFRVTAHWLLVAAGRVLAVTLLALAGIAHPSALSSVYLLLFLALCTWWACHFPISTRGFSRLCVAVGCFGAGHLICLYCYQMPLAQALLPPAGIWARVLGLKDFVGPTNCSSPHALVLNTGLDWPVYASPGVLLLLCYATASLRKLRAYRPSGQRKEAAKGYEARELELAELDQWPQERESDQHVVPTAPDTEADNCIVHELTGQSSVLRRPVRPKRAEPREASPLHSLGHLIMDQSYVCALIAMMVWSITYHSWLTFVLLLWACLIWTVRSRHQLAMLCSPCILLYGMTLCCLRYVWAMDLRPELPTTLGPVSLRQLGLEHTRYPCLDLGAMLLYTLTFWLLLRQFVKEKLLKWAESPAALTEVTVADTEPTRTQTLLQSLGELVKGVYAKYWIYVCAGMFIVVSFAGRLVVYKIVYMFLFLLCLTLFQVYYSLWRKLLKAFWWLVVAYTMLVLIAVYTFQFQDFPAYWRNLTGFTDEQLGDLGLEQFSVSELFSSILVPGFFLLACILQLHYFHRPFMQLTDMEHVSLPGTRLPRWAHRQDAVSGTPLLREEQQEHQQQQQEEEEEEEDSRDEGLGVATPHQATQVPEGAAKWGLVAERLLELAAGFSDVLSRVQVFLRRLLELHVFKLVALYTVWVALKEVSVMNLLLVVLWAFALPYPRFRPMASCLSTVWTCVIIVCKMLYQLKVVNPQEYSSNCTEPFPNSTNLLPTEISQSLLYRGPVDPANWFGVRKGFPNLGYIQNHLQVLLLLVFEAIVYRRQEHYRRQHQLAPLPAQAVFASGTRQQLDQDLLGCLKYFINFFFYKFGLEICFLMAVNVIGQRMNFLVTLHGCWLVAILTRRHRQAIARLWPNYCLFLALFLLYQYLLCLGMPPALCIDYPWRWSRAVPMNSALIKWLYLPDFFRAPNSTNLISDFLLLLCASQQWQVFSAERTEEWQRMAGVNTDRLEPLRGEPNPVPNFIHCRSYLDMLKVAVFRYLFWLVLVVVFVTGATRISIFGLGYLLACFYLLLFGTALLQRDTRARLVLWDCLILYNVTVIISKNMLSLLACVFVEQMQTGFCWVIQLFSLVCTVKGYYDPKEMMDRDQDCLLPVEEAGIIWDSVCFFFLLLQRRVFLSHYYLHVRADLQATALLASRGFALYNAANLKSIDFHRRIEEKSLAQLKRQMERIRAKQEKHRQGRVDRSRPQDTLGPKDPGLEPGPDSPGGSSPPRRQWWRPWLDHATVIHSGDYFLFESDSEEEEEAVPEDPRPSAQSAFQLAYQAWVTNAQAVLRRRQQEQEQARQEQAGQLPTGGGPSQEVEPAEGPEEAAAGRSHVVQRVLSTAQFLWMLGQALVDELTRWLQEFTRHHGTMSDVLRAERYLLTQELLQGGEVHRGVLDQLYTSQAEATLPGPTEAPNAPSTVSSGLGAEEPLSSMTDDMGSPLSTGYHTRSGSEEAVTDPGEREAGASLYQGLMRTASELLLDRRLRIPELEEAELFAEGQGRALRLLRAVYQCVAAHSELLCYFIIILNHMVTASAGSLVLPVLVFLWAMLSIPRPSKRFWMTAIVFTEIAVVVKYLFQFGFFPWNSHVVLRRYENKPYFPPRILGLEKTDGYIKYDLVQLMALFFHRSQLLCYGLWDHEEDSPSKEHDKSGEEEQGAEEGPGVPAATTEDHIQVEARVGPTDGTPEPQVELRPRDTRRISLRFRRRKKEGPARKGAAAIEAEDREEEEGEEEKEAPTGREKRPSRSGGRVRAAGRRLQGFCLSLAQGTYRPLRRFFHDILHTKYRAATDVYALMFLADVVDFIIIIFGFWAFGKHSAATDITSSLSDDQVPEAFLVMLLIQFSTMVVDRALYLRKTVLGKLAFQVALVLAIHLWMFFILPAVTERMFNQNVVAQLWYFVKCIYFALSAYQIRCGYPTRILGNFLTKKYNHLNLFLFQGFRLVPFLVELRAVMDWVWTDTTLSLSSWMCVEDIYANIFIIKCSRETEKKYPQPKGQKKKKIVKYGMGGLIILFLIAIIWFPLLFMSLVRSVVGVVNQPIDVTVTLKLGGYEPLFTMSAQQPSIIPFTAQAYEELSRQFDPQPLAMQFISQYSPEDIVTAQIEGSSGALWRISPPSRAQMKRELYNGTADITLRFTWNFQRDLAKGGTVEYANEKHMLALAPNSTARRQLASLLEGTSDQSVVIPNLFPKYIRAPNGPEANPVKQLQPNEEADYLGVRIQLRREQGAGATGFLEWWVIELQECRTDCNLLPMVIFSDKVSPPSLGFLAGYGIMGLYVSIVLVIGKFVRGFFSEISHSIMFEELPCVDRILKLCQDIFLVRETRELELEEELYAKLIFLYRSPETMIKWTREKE
Experimental: (§1) To study the calcium influx evoked by native Piezo1 Rs expressed in microglia cells the present inventors used short Yoda1 applications (2 s, 50 μM if not otherwise specified). For this purpose, human IPSO derived microglia cells and SV-40 (immortalized human microglia) cells were seeded on 7 mm cover slips 1 day prior to the imaging experiment. Cells were loaded with the calcium-sensitive fluorescent dye Fluo-4AM (5 μM) for 30 min at 37° C. Followed by wash-incubation for 15 min in Ab 20 μM, 50 μM GdCI and basic solution (BS) as a control at 37° C. The basic solution containing the following (BS, in mM): 2.5 KCl, 152 NaCl, 10 glucose, 2 CaCl2, and 10 HEPES at pH 7.4. Fluorescence was visualized using monochromatic light source (TILL Photonics GmbH) using Ex/Im 494/[…] and a CCD camera (SensiCam). Chemicals were applied using a fast perfusion system (RSC-200, BioLogic Science). To quantify the difference in the amplitude of calcium transients, the ratio values were normalized by subtracting a baseline and further divided by the amplitude of the calcium transient to the 2 sec application of the ionomycin. Data were pre-analyzed offline using the FEI offline analysis (TILL Photonics), and further analysis was automatized using MatLab. Quantitative data were expressed as means±SEM unless otherwise stated. Number of experiments is indicated by n. Significance assessed with the ANOVA test or Mann-Whitney t test for non-parametric data. Statistically significant differences were set at*p<0.05 and **p<0.01.
Differentiation of microglia. Differentiation of microglia was carried out as previously described with minor modifications (Abud et al., 2017). Shortly, on DO, iPSCs were dissociated to single cells with 0.5 mM EDTA or Accutase and were replated at a density of 6-,000-16,000 cells/cm2 on Matrigel in E8, 0.5% penicillin/streptomycin (P/S, 50 IU/50 […]), 5 ng/ml BMP4, 25 ng/ml activin a (both from Peprotech or Miltenyi Biotec), 1 μM CHIR 99021 (Axon or Stem Cell Technologies) and 10 μM Y-27632 to induce mesodermal differentiation. […]

[2] = target: T2, Piezo1Rs (Homo sapiens, UniProt Q92508); assay: Calcium imaging of Yoda1-evoked Ca2+ transients in SV-40 immortalized human microglia cell line; conditions: control SV-40 cells, n=13
T2 construct: SV-40 immortalized human microglia cell line which endogenously express Piezo-1 and Piezo2Rs was used; endogenous in cells; host or cells: SV-40 immortalized human microglia cell line
T2 sequence (Q92508 whole entry): as above
Experimental: as §1, with “Chemicals were applied using a fast perfusion system (RSC-200, BioLogic Science).” left out, “Number of experiments is indicated by n.” left out, “Statistically significant differences were set at*p<0.05 and **p<0.01.” left out

[3] = tested on: hiPSC-microglia; assay: Cytotoxicity assay (Cytotox Green, Incucyte S3); conditions: 2-20 μM Yoda1, 60-hour time point, n=3 experiments
Experimental: Cytotoxicity assay. The cytotoxicity of in vitro cultures was assessed with Cytotox Green assay (Essen Bioscience) using Incucyte S3 Live-Cell Analysis System (Essen Bioscience, Ann Arbor, Mich., USA, #4647). Microglia were seeded for the assay at density of 15 000 cells per well on poly-D-lysine (PDL, Sigma, #P0899) coated Nunclon (Thermo Scientific, #167008) or ImageLock 96-well plates (Essen Bioscience, #4379). On the assay day, cells were treated with 0.1-20 μM Yoda1 (Tocris, #5586) in PM medium supplemented with 250 nM Cytotox Green reagent (Essen Bioscience, #4633). Equal volume of DMSO (Sigma, #D2650) was used as a vehicle and 200 μM MPP+(Sigma, #D048) was applied as a positive control. Cells were live-imaged in IncuCyte S3 at 37° C. and 5% CO2 every 3 hours for 3 days to obtain cell death over time. One to two 10× images per well were captured using the phase-contrast mode to obtain confluency and the green fluorescence mode to obtain fluorescent intensity. Quantification was performed using IncuCyte S3 Software (2019B). Green fluorescence was separated from background with a top-hat thresholding and all settings were kept constant between different conditions. […]

Clc1cccc(Cl)c1CSc1nnc(-c2cnccn2)s1 [Yoda1]
Ca2+ transients evoked by Yoda1 short (2 s) application, amplitude normalized to ionomycin [1]: 1.15±0.36
Yoda1 activated Ca2+ transients, amplitude normalized to ionomycin [2]: 0.82±0.14
microglial cell death (cytotoxicity dye uptake) [3]: protects hiPSC-microglia from cell death
